Assay results from ChEMBL document CHEMBL3400036, “Novel 4-substituted-N,N-dimethyltetrahydronaphthalen-2-amines: synthesis, affinity, and in silico docking studies at serotonin 5-HT2-type and histamine H1 G protein-coupled receptors” (Bioorg Med Chem, 2015).

Legend:
Format in all cases: cell-based
[1] = target: 5-hydroxytryptamine receptor 2B (Homo sapiens, UniProt P41595); assay: Displacement of [3H]Mesulergine from human 5-HT2B receptor expressed in HEK293 cells by scintillation counting analysis
Sequence of 5-hydroxytryptamine receptor 2B (P41595 whole entry): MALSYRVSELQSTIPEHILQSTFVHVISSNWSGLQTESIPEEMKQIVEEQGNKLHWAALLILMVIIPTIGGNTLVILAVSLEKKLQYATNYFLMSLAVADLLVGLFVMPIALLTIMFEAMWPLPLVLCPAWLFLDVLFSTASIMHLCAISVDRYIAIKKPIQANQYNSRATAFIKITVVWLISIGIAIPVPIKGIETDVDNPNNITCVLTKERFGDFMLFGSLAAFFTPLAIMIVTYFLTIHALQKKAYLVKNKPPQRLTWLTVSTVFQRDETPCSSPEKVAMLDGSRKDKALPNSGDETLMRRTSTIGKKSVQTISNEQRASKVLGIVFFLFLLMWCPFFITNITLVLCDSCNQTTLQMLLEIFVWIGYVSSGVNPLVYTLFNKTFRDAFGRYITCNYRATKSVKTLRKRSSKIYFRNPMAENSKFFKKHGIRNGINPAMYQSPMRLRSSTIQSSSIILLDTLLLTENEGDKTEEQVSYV

[2] = target: T1, 5-hydroxytryptamine receptor 2C (Homo sapiens, UniProt P28335); assay: Displacement of [3H]Mesulergine from human 5-HT2C-INI receptor expressed in HEK293 cells by scintillation counting analysis
T1 sequence (P28335 whole entry): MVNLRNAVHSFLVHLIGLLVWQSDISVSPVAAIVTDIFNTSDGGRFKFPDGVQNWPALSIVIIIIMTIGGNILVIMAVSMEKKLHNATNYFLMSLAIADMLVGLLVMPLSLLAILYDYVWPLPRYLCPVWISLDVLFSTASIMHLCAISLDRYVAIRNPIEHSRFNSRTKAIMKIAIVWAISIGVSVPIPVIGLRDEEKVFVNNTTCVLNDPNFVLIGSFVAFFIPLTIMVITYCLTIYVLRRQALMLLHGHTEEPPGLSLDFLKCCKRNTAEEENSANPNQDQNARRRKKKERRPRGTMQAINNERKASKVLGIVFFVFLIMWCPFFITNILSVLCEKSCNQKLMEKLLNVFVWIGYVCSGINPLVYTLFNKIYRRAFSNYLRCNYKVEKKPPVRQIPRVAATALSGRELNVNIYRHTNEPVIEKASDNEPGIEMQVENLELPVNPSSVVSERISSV

[3] = target: 5-hydroxytryptamine receptor 2A (Homo sapiens, UniProt P28223); assay: Displacement of [3H]Ketanserin from human 5-HT2A receptor expressed in HEK293 cells by scintillation counting analysis
Sequence of 5-hydroxytryptamine receptor 2A (P28223 whole entry): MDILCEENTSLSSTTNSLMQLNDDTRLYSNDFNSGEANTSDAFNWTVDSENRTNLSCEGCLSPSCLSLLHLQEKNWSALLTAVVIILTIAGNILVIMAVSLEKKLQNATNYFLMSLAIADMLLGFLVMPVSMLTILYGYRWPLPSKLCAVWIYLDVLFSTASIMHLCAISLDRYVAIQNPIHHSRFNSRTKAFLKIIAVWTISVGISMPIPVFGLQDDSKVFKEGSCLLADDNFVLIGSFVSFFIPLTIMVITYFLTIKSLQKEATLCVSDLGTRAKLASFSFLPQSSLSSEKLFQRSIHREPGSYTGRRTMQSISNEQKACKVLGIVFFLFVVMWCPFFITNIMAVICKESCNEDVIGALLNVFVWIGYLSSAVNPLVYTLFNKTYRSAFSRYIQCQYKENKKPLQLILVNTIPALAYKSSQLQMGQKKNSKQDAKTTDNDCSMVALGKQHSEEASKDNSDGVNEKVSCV

| SMILES | Ki [1] [nM] | Ki [2] [nM] | Ki [3] [nM] |
| --- | --- | --- | --- |
| CN(C)[C@H]1Cc2ccccc2[C@H](C2CCCCC2)C1 | 170 | 30 | 80 |
| CN(C)[C@@H]1Cc2ccccc2[C@@H](C2CCCCC2)C1 | 20 | 7 | 20 |
| CN(C)[C@H]1Cc2ccccc2[C@H](c2cccc([N+](=O)[O-])c2)C1 | 20 | 120 | 500 |
| CN(C)[C@@H]1Cc2ccccc2[C@@H](c2cccc(Br)c2)C1 | 8 | 4 | 20 |
| CN(C)[C@@H]1Cc2ccccc2[C@@H](c2ccc(Cl)cc2)C1 | 300 | 120 | 250 |
| CN(C)[C@H]1Cc2ccccc2[C@H](c2ccc(F)cc2)C1 | 66 | 75 | 71 |
| CN(C)[C@@H]1Cc2ccccc2[C@@H](c2ccccc2Br)C1 | 650 | 70 | 1100 |
| Cc1ccccc1[C@H]1C[C@H](N(C)C)Cc2ccccc21 | 800 | 1600 | 1000 |
| CN(C)[C@H]1Cc2ccccc2[C@H](c2ccc(Br)cc2)C1 | 30 | 70 | 60 |
| CN(C)[C@H]1Cc2ccccc2[C@H](c2cccc(Br)c2)C1 | 40 | 200 | 260 |
| CN(C)[C@@H]1Cc2ccccc2[C@@H](c2cccc([N+](=O)[O-])c2)C1 | 70 | 10 | 74 |
| CN(C)[C@@H]1Cc2ccccc2[C@@H](c2cccc(F)c2)C1 | 70 | 43 | – |
| CN(C)[C@H]1Cc2ccccc2[C@H](c2ccccc2Br)C1 | 4100 | 78 | 760 |
| CN(C)[C@@H]1Cc2ccccc2[C@@H](c2cccc(C(F)(F)F)c2)C1 | 60 | 10 | 80 |
| CN(C)[C@H]1Cc2ccccc2[C@H](c2ccc(Cl)cc2)C1 | 80 | 55 | 50 |
| CN(C)[C@H]1Cc2ccccc2[C@H](C2CCCCCCC2)C1 | 40 | – | – |

| SMILES | Ki [1] [nM] | Ki [2] [nM] | Ki [3] [nM] |
| --- | --- | --- | --- |
| CN(C)[C@@H]1Cc2ccccc2[C@@H](c2cccc(-c3ccccc3)c2)C1 | 73 | 5 | – |
| CN(C)[C@H]1Cc2ccccc2[C@H](c2cccc(-c3ccccc3)c2)C1 | 200 | 1000 | – |
| CN(C)[C@H]1Cc2ccccc2[C@H](c2cccc(C(F)(F)F)c2)C1 | 200 | 230 | 1300 |
| CN(C)[C@@H]1Cc2ccccc2[C@@H](c2ccccc2Cl)C1 | 300 | 290 | 2400 |
| CN(C)[C@@H]1Cc2ccccc2[C@@H](c2ccccc2)C1 | 94 | – | 100 |
| CN(C)[C@H]1Cc2ccccc2[C@H](c2ccccc2Cl)C1 | 710 | 50 | 2800 |
| CN(C)[C@H]1Cc2ccccc2[C@H](c2cccc(F)c2)C1 | 110 | 200 | – |
| CN(C)[C@H]1Cc2ccccc2[C@H](c2cccc(Cl)c2)C1 | 50 | […] | […] |
| CN(C)[C@H]1Cc2ccccc2[C@H](c2ccc(C(F)(F)F)cc2)C1 | 250 | – | – |
| CN(C)[C@@H]1Cc2ccccc2[C@@H](C2CCCCCCC2)C1 | 10 | – | – |
| CN(C)[C@@H]1Cc2ccccc2[C@@H](c2ccc(Br)cc2)C1 | 210 | 100 | 220 |
| CN(C)[C@@H]1Cc2ccccc2[C@@H](c2cccc(Cl)c2)C1 | 30 | […] | […] |
| CN(C)[C@H]1Cc2ccccc2[C@H](c2ccccc2)C1 | 240 | – | 470 |
| Cc1ccccc1[C@@H]1C[C@@H](N(C)C)Cc2ccccc21 | 6000 | 2000 | 700 |
| CN(C)[C@@H]1Cc2ccccc2[C@@H](c2ccc(F)cc2)C1 | 400 | 68 | 140 |
